In brackets after ≈: the same amount, converted by molar mass.
How the values were obtained:
Type in all cases: cell-based
[1] = tested on: Escherichia coli; experiment: MIC by gradient plate in vitro method, Escherichia coli; settings: read-out: Minimum Inhibitory Concentration
From the text: (§1) The antibiotic activity of the cephalosporin compounds of this invention is illustrated by the data provided in the following Table of representative compounds. The values in the Table are the minimum inhibitory concentrations (MIC) for the test compounds against the indicated microorganisms. The MIC values were obtained using the gradient plate in vitro method for determining antibiotic activity.

[2] = tested on: V32; experiment: MIC by gradient plate in vitro method, V32 (penicillin resistant Staphylococcus); settings: read-out: Minimum Inhibitory Concentration
From the text: as §1
(§2) ^1 Test organisms V41, V32, and V84 are penicillin resistant
(§3) Staphylococcus. X-400 is a methicillin resistant Staphylococcus.

[3] = tested on: Salmonella heidelberg; experiment: MIC by gradient plate in vitro method, Salmonella heidelberg; settings: Salmonella enterica, read-out: Minimum Inhibitory Concentration
From the text: as §1

[4] = tested on: Shigella sp.; experiment: MIC by gradient plate in vitro method, Shigella sp.; settings: read-out: Minimum Inhibitory Concentration
From the text: as §1

[5] = tested on: Aerobacter aerogenes; experiment: MIC by gradient plate in vitro method, Aerobacter aerogenes; settings: Klebsiella aerogenes, read-out: Minimum Inhibitory Concentration
From the text: as §1

[6] = tested on: Klebsiella pneumoniae; experiment: MIC by gradient plate in vitro method, Klebsiella pneumoniae; settings: read-out: Minimum Inhibitory Concentration
From the text: as §1

[7] = tested on: V84; experiment: MIC by gradient plate in vitro method, V84 (penicillin resistant Staphylococcus); settings: read-out: Minimum Inhibitory Concentration
From the text: as §1, §2, §3

[8] = tested on: Pseudomonas aeruginosa; experiment: MIC by gradient plate in vitro method, Pseudomonas aeruginosa; settings: read-out: Minimum Inhibitory Concentration
From the text: as §1

[9] = tested on: X400; experiment: MIC by gradient plate in vitro method, X400 (methicillin resistant Staphylococcus); settings: read-out: Minimum Inhibitory Concentration
From the text: as §1, §3

[10] = tested on: V41; experiment: MIC by gradient plate in vitro method, V41 (penicillin resistant Staphylococcus); settings: read-out: Minimum Inhibitory Concentration
From the text: as §1, §2, §3

[11] = tested on: Serratia marcescens; experiment: MIC by gradient plate in vitro method, Serratia marcescens; settings: read-out: Minimum Inhibitory Concentration
From the text: as §1

CC(=O)OCC1=C(C(=O)O)N2C(=O)C(NC(=O)C(NC(=O)n3c(=O)[nH]c4ccccc43)c3ccccc3)[C@H]2SC1 (stereo partly drawn) [Test Compound A, 7-[α-(2,3-Dihydro-2-oxo-1H-benzimidazol-1-ylcarbonylamino)phenylacetamido]-3-acetoxymethyl-3-cephem-4-carboxylic acid]
MIC [1]: 140 µg/mL (≈ 248 µM)
MIC [2]: 11 µg/mL (≈ 19.4 µM)
MIC [3]: 120 µg/mL (≈ 212 µM)
MIC [4]: 100 µg/mL (≈ 177 µM)
MIC [5]: 140 µg/mL (≈ 248 µM)
MIC [6]: 90 µg/mL (≈ 159 µM)
MIC [7]: 8 µg/mL (≈ 14.1 µM)
MIC [8]: 16 µg/mL (≈ 28.3 µM)
MIC [9]: > 20 µg/mL
MIC [10]: 8 µg/mL (≈ 14.1 µM)
MIC [11]: > 200 µg/mL

Cn1nnnc1SCC1=C(C(=O)O)N2C(=O)C(NC(=O)C(NC(=O)n3c(=O)[nH]c4ccccc43)c3ccccc3)[C@H]2SC1 (stereo partly drawn) [Test Compound B, 7-[α-(2,3-Dihydro-2-oxo-1H-benzimidazol-1-ylcarbonylamino)phenylacetamido]-3-(1-methyltetrazol-5-ylthiomethyl)-3-cephem-4-carboxylic acid]
MIC [1]: 9 µg/mL (≈ 14.5 µM)
MIC [2]: 6 µg/mL (≈ 9.65 µM)
MIC [3]: 15 µg/mL (≈ 24.1 µM)
MIC [4]: 16 µg/mL (≈ 25.7 µM)
MIC [5]: 21.8 µg/mL (≈ 35.1 µM)
MIC [6]: 7 µg/mL (≈ 11.3 µM)
MIC [7]: 0.9 µg/mL (≈ 1.45 µM)
MIC [8]: 12 µg/mL (≈ 19.3 µM)
MIC [9]: > 20 µg/mL
MIC [10]: 1 µg/mL (≈ 1.61 µM)
MIC [11]: 120 µg/mL (≈ 193 µM)

CC(=O)OCC1=C(C(=O)O)N2C(=O)C(NC(=O)C(NC(=O)n3c(=O)n(C)c4ccccc43)c3ccccc3)[C@H]2SC1 (stereo partly drawn) [Test Compound C, 7-[α-(3-Methyl-2,3-dihydro-2-oxo-1H-benzimidazol-1-ylcarbonylamino)phenylacetamido]-3-acetoxymethyl-3-cephem-4-carboxylic acid]
MIC [1]: 72.5 µg/mL (≈ 125 µM)
MIC [2]: 6 µg/mL (≈ 10.4 µM)
MIC [3]: 80 µg/mL (≈ 138 µM)
MIC [4]: 55 µg/mL (≈ 94.9 µM)
MIC [5]: 120 µg/mL (≈ 207 µM)
MIC [6]: 25 µg/mL (≈ 43.1 µM)
MIC [7]: 0.9 µg/mL (≈ 1.55 µM)
MIC [8]: 8.5 µg/mL (≈ 14.7 µM)
MIC [9]: > 20 µg/mL
MIC [10]: 5 µg/mL (≈ 8.63 µM)
MIC [11]: > 200 µg/mL

Cn1nnnc1SCC1=C(C(=O)O)N2C(=O)C(NC(=O)C(NC(=O)n3c(=O)n(C)c4ccccc43)c3ccccc3)[C@H]2SC1 (stereo partly drawn) [Test Compound D, 7-[α-(3-Methyl-2,3-dihydro-2-oxo-1H-benzimidazol-1-ylcarbonylamino)phenylacetamido]-3-(1-methyltetrazol-5-ylthiomethyl)-3-cephem-4-carboxylic acid]
MIC [1]: 14 µg/mL (≈ 22 µM)
MIC [2]: 3 µg/mL (≈ 4.72 µM)
MIC [3]: 18 µg/mL (≈ 28.3 µM)
MIC [4]: 15 µg/mL (≈ 23.6 µM)
MIC [5]: 30 µg/mL (≈ 47.2 µM)
MIC [6]: 19 µg/mL (≈ 29.9 µM)
MIC [7]: 0.6 µg/mL (≈ 0.944 µM)
MIC [8]: 8 µg/mL (≈ 12.6 µM)
MIC [9]: 16 µg/mL (≈ 25.2 µM)
MIC [10]: 3 µg/mL (≈ 4.72 µM)
MIC [11]: > 200 µg/mL

NC(=O)OCC1=C(C(=O)O)N2C(=O)C(NC(=O)C(NC(=O)n3c(=O)[nH]c4ccccc43)c3ccc(O)cc3)[C@H]2SC1 (stereo partly drawn) [Test Compound E, 7-[α-(2,3-dihydro-2-oxo-1H-benzimidazol-1-ylcarbonylamino)-4-hydroxyphenylacetamido]-3-carbamoyloxymethyl-3-cephem-4-carboxylic acid]
MIC [1]: 160 µg/mL (≈ 275 µM)
MIC [2]: 5 µg/mL (≈ 8.58 µM)
MIC [3]: 120 µg/mL (≈ 206 µM)
MIC [4]: 120 µg/mL (≈ 206 µM)
MIC [5]: > 200 µg/mL
MIC [6]: 100 µg/mL (≈ 172 µM)
MIC [7]: 0.7 µg/mL (≈ 1.2 µM)
MIC [8]: 10 µg/mL (≈ 17.2 µM)
MIC [9]: 180 µg/mL (≈ 309 µM)
MIC [10]: 5 µg/mL (≈ 8.58 µM)
MIC [11]: > 200 µg/mL

From patent US4061861A, “7-[α-(2,3-DIHYDRO-2-OXO-1H-benzimidazol-1-ylcarbonyl-amino) arylacetamido]cephalosporins” (Eli Lilly and Company, priority 1976, dated 1977)
